Results on four cell lines are retold here after the supplement of paper PMC10307832.

What all share (test): relative viability (nuclei count vs DMSO), 5 days (fraction); higher = more cells survive
Compound in the experiment “CX-5461 + Trametinib”: Cc1cnc(CNC(=O)c2c(=O)c3ccc(N4CCCN(C)CC4)nc3n3c2sc2ccccc23)cn1 [CX-5461] + CC(=O)Nc1cccc(-n2c(=O)n(C3CC3)c(=O)c3c(Nc4ccc(I)cc4F)n(C)c(=O)c(C)c32)c1 [Trametinib] (partner 0.02 µM)
Put shortly:
(§1)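 After 5 days of treatment, lung cancer cells in 1536-well plates were fixed and stained in a single step (final 0.05% Triton X-100, 1% formaldehyde, 1 ug/ml Hoechst) and their nuclei counted on 4× images. Treatment had been applied by pin tool the day after seeding as one drug alone or as a fixed anchor-drug dose with five library-drug doses (not always all listed) in √10 steps. Relative viability is the nuclei count of treated wells divided by that of vehicle wells, and values are medians of duplicate plates.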

Compound in the experiment “CX-5461 + Alpelisib”: Cc1cnc(CNC(=O)c2c(=O)c3ccc(N4CCCN(C)CC4)nc3n3c2sc2ccccc23)cn1 [CX-5461] + Cc1nc(NC(=O)N2CCC[C@H]2C(N)=O)sc1-c1ccnc(C(C)(C)C(F)(F)F)c1 [Alpelisib] (partner 2 µM)
In outline:
as §1

Compound in the experiment “IMD-0354 + Vorinostat”: O=C(Nc1cc(C(F)(F)F)cc(C(F)(F)F)c1)c1cc(Cl)ccc1O [IMD-0354] + O=C(CCCCCCC(=O)Nc1ccccc1)NO [Vorinostat] (partner 1 µM)
Put shortly:
as §1

Compound in the experiment “CX-5461 + Phenformin”: Cc1cnc(CNC(=O)c2c(=O)c3ccc(N4CCCN(C)CC4)nc3n3c2sc2ccccc23)cn1 [CX-5461] + N=C(N)NC(=N)NCCc1ccccc1 [Phenformin] (partner 250 µM)
In outline: as §1

For NCI-H2405, the relative viability with CX-5461 + Trametinib (first compound 0.01 µM) is 0.652; with CX-5461 + Trametinib (first compound 0.03162 µM) it was 0.594; in the experiment with CX-5461 + Trametinib (first compound 0.1 µM), 0.724; with CX-5461 + Trametinib (first compound 0.3162 µM), 0.575; with CX-5461 + Trametinib (first compound 1 µM), 0.649; with CX-5461 + Alpelisib (first compound 0.01 µM), 0.851. Further, the relative viability in the experiment with CX-5461 + Alpelisib (first compound 0.03162 µM) amounted to 0.871; with CX-5461 + Alpelisib (first compound 0.1 µM), 0.907; with CX-5461 + Alpelisib (first compound 0.3162 µM) it was 0.525; in the experiment with CX-5461 + Alpelisib (first compound 1 µM), 0.624; in the experiment with IMD-0354 + Vorinostat (first compound 0.04 µM), 1.24; in the experiment with IMD-0354 + Vorinostat (first compound 0.1265 µM) it was 0.984. In addition, the relative viability with IMD-0354 + Vorinostat (first compound 0.4 µM) was determined as 0.706; with IMD-0354 + Vorinostat (first compound 1.265 µM), 0.306; in the experiment with IMD-0354 + Vorinostat (first compound 4 µM), 0.335; in the experiment with CX-5461 + Phenformin (first compound 0.01 µM) it was 0.411; with CX-5461 + Phenformin (first compound 0.03162 µM), 0.363; with CX-5461 + Phenformin (first compound 0.1 µM) it was 0.415. Besides, the relative viability came out at 0.326 with CX-5461 + Phenformin (first compound 0.3162 µM) and 0.342 in the experiment with CX-5461 + Phenformin (first compound 1 µM).
With NCI-H3122, the relative viability amounted to 0.21 with CX-5461 + Trametinib (first compound 0.01 µM); 0.213 with CX-5461 + Trametinib (first compound 0.03162 µM); 0.205 with CX-5461 + Trametinib (first compound 0.1 µM); 0.248 with CX-5461 + Trametinib (first compound 0.3162 µM); 0.186 in the experiment with CX-5461 + Trametinib (first compound 1 µM); 0.836 in the experiment with CX-5461 + Alpelisib (first compound 0.01 µM). Also, the relative viability with CX-5461 + Alpelisib (first compound 0.03162 µM) is 0.951; in the experiment with CX-5461 + Alpelisib (first compound 0.1 µM), 0.762; in the experiment with CX-5461 + Alpelisib (first compound 0.3162 µM) it was 0.773; in the experiment with CX-5461 + Alpelisib (first compound 1 µM), 0.677; with IMD-0354 + Vorinostat (first compound 0.04 µM), 1.04; with IMD-0354 + Vorinostat (first compound 0.1265 µM), 0.936. Moreover, the relative viability in the experiment with IMD-0354 + Vorinostat (first compound 0.4 µM) came to 0.622; with IMD-0354 + Vorinostat (first compound 1.265 µM) it was 0.3; in the experiment with IMD-0354 + Vorinostat (first compound 4 µM), 0.132; with CX-5461 + Phenformin (first compound 0.01 µM), 0.385; with CX-5461 + Phenformin (first compound 0.03162 µM), 0.343; with CX-5461 + Phenformin (first compound 0.1 µM), 0.316. Also, the relative viability with CX-5461 + Phenformin (first compound 0.3162 µM) stood at 0.378; in the experiment with CX-5461 + Phenformin (first compound 1 µM) it was 0.248.
Consider PC-3 [JPC-3], for which the relative viability was 0.822 with CX-5461 + Trametinib (first compound 0.01 µM); 0.719 with CX-5461 + Trametinib (first compound 0.1 µM); 0.749 with CX-5461 + Trametinib (first compound 0.3162 µM); 0.644 in the experiment with CX-5461 + Trametinib (first compound 1 µM); 1.06 with CX-5461 + Alpelisib (first compound 0.01 µM); 1.08 with CX-5461 + Alpelisib (first compound 0.03162 µM). In addition, the relative viability with CX-5461 + Alpelisib (first compound 0.1 µM) was found to be 1.02; with CX-5461 + Alpelisib (first compound 0.3162 µM) it was 1.07; with CX-5461 + Alpelisib (first compound 1 µM), 0.932; with IMD-0354 + Vorinostat (first compound 0.04 µM), 0.869; in the experiment with IMD-0354 + Vorinostat (first compound 0.1265 µM), 0.813; with IMD-0354 + Vorinostat (first compound 0.4 µM), 0.769. Besides, the relative viability is 0.296 with IMD-0354 + Vorinostat (first compound 1.265 µM); 0.412 with IMD-0354 + Vorinostat (first compound 4 µM); 0.479 with CX-5461 + Phenformin (first compound 0.01 µM); 0.449 with CX-5461 + Phenformin (first compound 0.03162 µM); 0.467 with CX-5461 + Phenformin (first compound 0.1 µM); 0.467 in the experiment with CX-5461 + Phenformin (first compound 0.3162 µM). In addition, the relative viability with CX-5461 + Phenformin (first compound 1 µM) was determined as 0.455.
Take PC-14: the relative viability with CX-5461 + Trametinib (first compound 0.01 µM) stood at 0.718; with CX-5461 + Trametinib (first compound 0.03162 µM) it was 0.821; with CX-5461 + Trametinib (first compound 0.1 µM), 0.391; with CX-5461 + Trametinib (first compound 0.3162 µM) it was 0.76; in the experiment with CX-5461 + Trametinib (first compound 1 µM), 0.151; with CX-5461 + Alpelisib (first compound 0.01 µM) it was 0.947. In addition, the relative viability with CX-5461 + Alpelisib (first compound 0.03162 µM) turned out to be 1.23; with CX-5461 + Alpelisib (first compound 0.1 µM) it was 1.05; with CX-5461 + Alpelisib (first compound 0.3162 µM), 0.933; in the experiment with CX-5461 + Alpelisib (first compound 1 µM) it was 0.883; in the experiment with IMD-0354 + Vorinostat (first compound 0.04 µM), 0.83; in the experiment with IMD-0354 + Vorinostat (first compound 0.1265 µM), 0.751. For the same cell line, the relative viability in the experiment with IMD-0354 + Vorinostat (first compound 0.4 µM) worked out at 0.564; with IMD-0354 + Vorinostat (first compound 1.265 µM), 0.234; with IMD-0354 + Vorinostat (first compound 4 µM), 0.119; in the experiment with CX-5461 + Phenformin (first compound 0.01 µM) it was 0.761; with CX-5461 + Phenformin (first compound 0.03162 µM), 0.511; with CX-5461 + Phenformin (first compound 0.1 µM), 0.499. Also, the relative viability with CX-5461 + Phenformin (first compound 0.3162 µM) was 0.229; with CX-5461 + Phenformin (first compound 1 µM), 0.319.
